Test results as given in ChEMBL document CHEMBL4699602, “Stapled and Xenopus Glucagon-Like Peptide 1 (GLP-1)-Based Dual GLP-1/Gastrin Receptor Agonists with Improved Metabolic Benefits in Rodent Models of Obesity and Diabetes” (J Med Chem, 2020).
The source made the active and inactive calls. *1 amine or outer side, *2 acyl side, *3 side chain or, on linkers, in order; H or OH if unused. Bridges are numbered along the chain shown (N, C = ends). [ ]: non-standard residue; d: D form. X1 = CCCCCCCCCCCCCCCC(=O)NCCCCCCNC(=O)C(CCCCNC(=O)CCN1C(=O)CC([*:1])C1=O)NC(=O)CCN1C(=O)CC([*:2])C1=O; AEEA = NCCOCCOCC(=O)O; Aib = CC(C)(N)C(=O)O

Assays:
Mus musculus [1] = experiment: Reduction in body weight in C57BL/6 mouse model of high-fat diet induced obesity at 25 nmol/kg, sc BID for 21 days relative to control; format: functional; design: scale not given: the % may be the effect or the level left; details: time 21 day
[2] = Renal toxicity in ICR mouse assessed as effect on blood urea nitrogen level at 1000 nmol/kg, sc BID for 14 days; format: organism-based; details: in vivo, 336 h, time 14 day
[3] = biological target: T1, Cholecystokinin receptor type A (Homo sapiens, UniProt P32238); experiment: Agonist activity at human CCK-1R expressed in HEK293 cells assessed as stimulation of ERK phosphorylation incubated for 5 mins; format: cell-based
T1 sequence (P32238 whole entry): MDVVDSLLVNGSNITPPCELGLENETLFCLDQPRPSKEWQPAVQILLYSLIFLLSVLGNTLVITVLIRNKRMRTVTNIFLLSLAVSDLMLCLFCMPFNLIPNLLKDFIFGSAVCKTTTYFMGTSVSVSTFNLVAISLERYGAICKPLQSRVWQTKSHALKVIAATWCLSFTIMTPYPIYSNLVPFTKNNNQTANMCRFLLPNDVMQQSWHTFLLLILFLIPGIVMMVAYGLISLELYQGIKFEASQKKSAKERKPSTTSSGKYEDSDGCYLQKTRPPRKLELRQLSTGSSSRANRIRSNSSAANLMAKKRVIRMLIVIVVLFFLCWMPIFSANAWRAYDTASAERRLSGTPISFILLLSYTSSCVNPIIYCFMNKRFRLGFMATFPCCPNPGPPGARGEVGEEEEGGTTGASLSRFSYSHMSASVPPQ

Mus musculus [4] = experiment: Improvement in fasted blood glucose level in db/db mouse at 25 nmol/kg, sc BID for 6 weeks followed by another 6 week saline treatment relative to control; format: functional, organism-based
Mus musculus [5] = experiment: Improvement in pancreatic beta cell area level in db/db mouse at 25 nmol/kg, sc BID for 21 days relative to control; format: functional, organism-based; details: time 21.0 day
Mus musculus [6] = experiment: Reduction in fasting blood glucose in C57BL/6 mouse model of high-fat diet induced obesity at 25 nmol/kg, sc BID for 21 days relative to control; format: functional, organism-based; details: time 21.0 day
[7] = Hepatotoxicity in ICR mouse assessed as effect on alanine aminotransferase level at 1000 nmol/kg, sc BID for 14 days; format: toxicity, organism-based; details: in vivo, 336 h, time 14 day
Mus musculus [8] = experiment: Improvement in glucose tolerance in C57BL/6 mouse model of high-fat diet induced obesity at 25 nmol/kg, sc BID for 21 days relative to control; format: functional, organism-based; details: time 21.0 day
Mus musculus [9] = experiment: Hypoglycemic activity in db/db mouse assessed as decrease in glucose excursion at 25 nmol/kg, ip dosed 30 mins before test and measured up to 120 mins by OGTT method; format: functional, organism-based; details: time 150.0 min
[10] = biological target: Glucagon-like peptide 1 receptor (Homo sapiens, UniProt P43220); experiment: Agonist activity at human GLP-1R expressed in HEK293 cells assessed as stimulation of cAMP accumulation incubated for 20 mins; format: functional, cell-based
Chain of Glucagon-like peptide 1 receptor (P43220 whole entry): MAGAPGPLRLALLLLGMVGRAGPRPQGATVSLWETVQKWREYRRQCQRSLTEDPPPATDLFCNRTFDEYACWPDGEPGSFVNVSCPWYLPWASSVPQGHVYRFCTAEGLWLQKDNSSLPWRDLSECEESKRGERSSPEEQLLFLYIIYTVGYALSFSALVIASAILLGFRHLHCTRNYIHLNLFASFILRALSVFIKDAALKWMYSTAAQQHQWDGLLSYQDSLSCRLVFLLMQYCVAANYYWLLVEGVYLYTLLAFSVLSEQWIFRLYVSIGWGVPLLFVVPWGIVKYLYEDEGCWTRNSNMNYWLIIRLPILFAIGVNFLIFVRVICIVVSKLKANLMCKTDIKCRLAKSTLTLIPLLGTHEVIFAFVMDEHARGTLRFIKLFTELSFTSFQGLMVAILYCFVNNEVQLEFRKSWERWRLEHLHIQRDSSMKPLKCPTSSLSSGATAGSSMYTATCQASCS

Mus musculus [11] = experiment: Improvement in pancreatic islet area and number level in db/db mouse at 25 nmol/kg, sc BID for 21 days relative to control; format: functional, organism-based; details: time 21.0 day
Mus musculus [12] = experiment: Reduction in body fat content in C57BL/6 mouse model of high-fat diet induced obesity at 25 nmol/kg, sc BID for 21 days relative to control; format: functional; design: scale not given: the % may be the effect or the level left; details: time 21 day
Mus musculus [13] = experiment: Inhibition of solid-phase gastric emptying in fasted ICR mouse at 25 nmol/kg, ip measured after 4 hrs by LC-MS/MS analysis; format: functional, organism-based
[14] = Half life in ICR mouse at 50 nmol/kg, sc up to 24 hrs by LC-MS/MS analysis; format: ADME, organism-based; details: in vivo
Rattus norvegicus [15] = experiment: Reduction of food intake in Sprague-Dawley rat at 25 nmol/kg, ip after 24 hrs; format: functional, organism-based
[16] = biological target: T2, Gastrin/cholecystokinin type B receptor (Homo sapiens, UniProt P32239); experiment: Agonist activity at human CCK-2R expressed in HEK293 cells assessed as stimulation of ERK phosphorylation incubated for 5 mins; format: cell-based
T2 sequence (P32239 whole entry): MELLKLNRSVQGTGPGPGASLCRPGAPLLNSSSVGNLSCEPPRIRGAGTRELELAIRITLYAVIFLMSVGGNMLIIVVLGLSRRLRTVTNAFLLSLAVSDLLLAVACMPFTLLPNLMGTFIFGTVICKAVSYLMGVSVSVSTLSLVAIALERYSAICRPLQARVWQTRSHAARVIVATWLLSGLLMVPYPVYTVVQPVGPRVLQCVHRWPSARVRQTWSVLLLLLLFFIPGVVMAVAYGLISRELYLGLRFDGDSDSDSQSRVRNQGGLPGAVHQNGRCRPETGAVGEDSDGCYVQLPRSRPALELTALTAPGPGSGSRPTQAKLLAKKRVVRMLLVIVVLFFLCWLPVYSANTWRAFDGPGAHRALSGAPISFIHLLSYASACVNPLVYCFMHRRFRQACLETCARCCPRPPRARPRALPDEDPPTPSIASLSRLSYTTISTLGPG

[17] = Toxicity in Sprague-Dawley rat assessed as induction of kaolin intake at 25 nmol/kg, ip after 24 hrs by Kaolin consumption test; format: organism-based; details: in vivo
Mus musculus [18] = experiment: Improvement in fasted blood glucose level in db/db mouse at 25 nmol/kg, sc BID for 21 days relative to control; format: functional, organism-based; details: time 21.0 day
[19] = Renal toxicity in ICR mouse assessed as effect on serum creatinine level at 1000 nmol/kg, sc BID for 14 days; format: organism-based; details: in vivo, 336 h, time 14 day
Mus musculus [20] = experiment: Reduction in body weight gain in db/db mouse at 25 nmol/kg, sc BID for 21 days relative to control; format: functional, organism-based; details: time 21.0 day
Rattus norvegicus [21] = experiment: Reduction of food intake in Sprague-Dawley rat at 25 nmol/kg, sc BID for 12 days; format: functional, organism-based; details: time 12.0 day
INS1 [22] = experiment: Toxicity in rat INS1 cells assessed as reduction cell viability up to 1000 nM after 24 hrs by MTT assay; format: cell-based; details: ins1, 24 h
[23] = Hepatotoxicity in ICR mouse assessed as effect on aspartate aminotransferase level at 1000 nmol/kg, sc BID for 14 days; format: toxicity, organism-based; details: in vivo, 336 h, time 14 day
Mus musculus [24] = experiment: Insulinotropic activity in db/db mouse assessed as improvement in plasma insulin level at 25 nmol/kg, ip dosed 30 mins before test and measured up to 60 mins by OGTT method; format: functional, organism-based; details: time 90.0 min
Mus musculus [25] = experiment: Inhibition of liquid-phase gastric emptying in 6 hrs fasted ICR mouse assessed as reduction in blood acetaminophen concentration at 25 nmol/kg, ip dosed 30 mins before acetaminophen dosing by LC-MS/MS analysis; format: functional, organism-based
Mus musculus [26] = experiment: […] activity in non-fasted db/db mouse assessed as improvement in glucose tolerance at dosed intraperitoneally 30 mins before test and measured up to 120 mins by OGTT method; format: functional, organism-based; details: time 150.0 min
INS1 [27] = experiment: Protection against glucotoxicity in rat INS1 cells assessed as recovery of cell viability after 24 hrs in presence of glucotoxicity media by MTT assay; format: functional, cell-based
[28] = Tmax in ICR mouse at 50 nmol/kg, sc up to 24 hrs by LC-MS/MS analysis; format: ADME, organism-based; details: in vivo
Mus musculus [29] = experiment: Hypoglycemic activity in non-fasted db/db mouse assessed as improvement in glucose tolerance at dosed intraperitoneally 30 mins before test and measured up to 120 mins by OGTT method; format: functional, organism-based; details: time 150.0 min
Mus musculus [30] = experiment: Hypoglycemic activity in db/db mouse assessed as improvement in glucose tolerance at 25 nmol/kg, ip dosed 30 mins before test and measured up to 120 mins by OGTT method; format: functional, organism-based; details: time 150.0 min
Mus musculus [31] = experiment: Reduction in Hb1Ac level in db/db mouse at 25 nmol/kg, sc BID for 6 weeks followed by another 6 week saline treatment relative to control; format: functional, organism-based
Mus musculus [32] = experiment: Improvement in insulin content in db/db mouse at 25 nmol/kg, sc BID for 21 days relative to control; format: functional, organism-based; details: time 21.0 day
Mus musculus [33] = experiment: Reduction in serum triglyceride in C57BL/6 mouse model of high-fat diet induced obesity at 25 nmol/kg, sc BID for 21 days relative to control; format: functional, organism-based; details: time 21.0 day
Mus musculus [34] = experiment: Reduction in serum cholesterol in C57BL/6 mouse model of high-fat diet induced obesity at 25 nmol/kg, sc BID for 21 days relative to control; format: functional, organism-based; details: time 21.0 day
[35] = AUC (0 to infinity) in ICR mouse at 50 nmol/kg, sc up to 24 hrs by LC-MS/MS analysis; format: ADME, organism-based; design: route subcutaneous, dose 50 nmol/kg, time <=24; details: in vivo
[36] = Toxicity in Sprague-Dawley rat assessed as induction of kaolin intake at 25 nmol/kg, sc BID for 10 days by Kaolin consumption test; format: organism-based; details: in vivo, 240 h, time 10 day
Mus musculus [37] = experiment: Improvement in glucose tolerance in db/db mouse at 25 nmol/kg, sc BID for 6 weeks followed by another 6 week saline treatment relative to control; format: functional, organism-based
Mus musculus [38] = experiment: Improvement in HbA1c level in db/db mouse at 25 nmol/kg, sc BID for 21 days relative to control; format: functional, organism-based; details: time 21.0 day
Mus musculus [39] = experiment: Reduction in cumulated food intake in db/db mouse at 25 nmol/kg, sc BID for 21 days relative to control; format: functional, organism-based; details: time 21.0 day
Mus musculus [40] = experiment: Inhibition of pancreatic non-beta cell area (alpha-cell) level in db/db mouse at 25 nmol/kg, sc BID for 21 days relative to control; format: functional, organism-based; details: time 21.0 day

H-H[Aib]EGTYTNDVTEYLEEEAAKCFIEWLICGKPSSGAPPPS[AEEA][AEEA]YGWLDF-NH2 (linker 21-28 via X1)
active: Activity (Mus musculus [4]) | Activity (Mus musculus [5]) | Activity (Mus musculus [6]) | Activity (Mus musculus [8]) | Activity (Mus musculus [9]) | Activity (Mus musculus [11]) | inhibition (Mus musculus [13]) | Activity (Rattus norvegicus [15]) | Activity (Mus musculus [18]) | Activity (Mus musculus [20]) | Activity (Rattus norvegicus [21]) | Activity (Mus musculus [24]) | inhibition (Mus musculus [25]) | Activity (Mus musculus [26]) Dose-dependent effect | Activity (INS1 [27]) Dose-dependent effect | Activity (Mus musculus [29]) Dose-dependent effect | Activity (Mus musculus [30]) | Activity (Mus musculus [31]) | Activity (Mus musculus [32]) | Activity (Mus musculus [33]) | Activity (Mus musculus [34]) | Activity (Mus musculus [37]) | Activity (Mus musculus [38]) | Activity (Mus musculus [39]) | inhibition (Mus musculus [40])
4 h: Tmax [28]
8.8 nM: EC50 [16]
4.7 h: half-life [14]
> 1000 nM: EC50 [3]
19600 ng·h/mL: AUC(0-inf) [35]
24%: Activity (Mus musculus [1])
0.041 nM: EC50 [10]
30.4%: Activity (Mus musculus [12])
Non-Toxic: Activity [2] | Activity [7] | Activity [17] | Activity [19] | Activity (INS1 [22]) | Activity [23] | Activity [36]
